These are literature values, as cited in US11911501B1, “Biocompatible resin composition and method of manufacturing dissolvable microneedles for transdermal delivery using biocompatible resin” (Florida A&M University, priority 2020, dated 2024).

Structures are written as SMILES.

This data set relates to clonal SV 40 large T-antigen transfected human pulp-derived cells (tHPC). Particulars: reference [1].

For `Cc1cc(C)c(C(=O)P(=O)(c2ccccc2)c2ccccc2)c(C)c1` [TPO, diphenyl(2,4,6-trimethylbenzoyl)phosphine oxide], the toxicity result is recorded as “cause toxicity”.
